Key:
[1] = Phase solubility analysis of abiraterone-HPBCD; format: physicochemical; details: with HPBCD, in 0.01N HCl and FaSSIF
Protocol: Phase Solubility Analysis. Phase solubility analysis was conducted in two separate media, i.e., 0.01N HCl (pH 2.0) and FaSSIF (prepared in 50 mMol Phosphate Buffer pH 6.8). Solutions of HPBCD ranging from 0 mg/mL to 600 mg/mL were prepared in each media in scintillation vials. An excess of abiraterone was added to each vial and the vials were sonicated for 30 minutes and placed on a bench. Samples were pulled from each vial at time points of 48 hrs and 7 days. The samples were centrifuged using an ultracentrifuge (Eppendrof, Hamburg, Germany) The supernatants were further diluted using the HPLC diluent and analyzed by HPLC method mentioned above to find the concentration of abiraterone.

[2] = cited from earlier work
[3] = test system: prostate specific antigen (PSA); details: 1,000 mg daily, well controlled trials; cited from earlier work
[4] = test system: 22RV1 human prostate tumor xenograft; test: Anti-tumor activity in 22RV1 human prostate tumor xenograft model; format: in vivo, CB.17 SCID mice; details: low and high doses, once-daily oral gavage
Protocol: The objective of the xenograft mice study was to determine the anti-tumor activity of a composition made per Example 2.4 as a single agent versus abiraterone acetate in the 22RV1 human prostate tumor xenograft model. The study was conducted in CB.17 SCID mice injected with 22RV1 cells (5×10^6 cells/mouse) in the subcutaneous right flank. Tumors were grown to a mean tumor size between 100 and 150 mm^3 prior to study enrollment. The mice were dosed with the test article and reference once-daily by oral gavage per Table 12. Tumor volume was measured throughout the study. The study was terminated on day 26 when mean tumor volume of two experimental groups reached≥1500 mm^3.

Structure (SMILES)	type of solution state phase solubility profile (Higuchi and Connors) [1]	pKa [2]	treated patients achieving target PSA reductions [3]	tumor growth relative to vehicle control [4]
C[C@]12CC[C@H](O)CC1=CC[C@@H]1[C@@H]2CC[C@]2(C)C(c3cccnc3)=CC[C@@H]12 [Abiraterone, (3β)-17-(3-pyridinyl)androsta-5,16-dien-3-ol]	A-type	4.81	–	–
CC(=O)O[C@H]1CC[C@@]2(C)C(=CC[C@@H]3[C@@H]2CC[C@]2(C)C(c4cccnc4)=CC[C@@H]32)C1 [Abiraterone Acetate, (3β)-17-(3-pyridinyl)androsta-5, 16-dien-3-ol acetate]	–	–	up to 60%	did not result in statistically different tumor growth

Reference: patent US20220362264A1, “ABIRATERONE-CYCLIC OLIGOMER PHARMACEUTICAL FORMULATIONS AND METHODS OF FORMATION AND ADMINISTRATION THEREOF” (DISPERSOL TECHNOLOGIES, LLC., priority 2019, published 2022)
